Here are results for 2 substances from publication PMC4057896 (Journal of molecular biology, 2014).

Entries after “also recorded” stand apart in the source; their conditions may differ.

In experiment [1] the test system is hexon trimer. The experiment can be described thus: Native MS of hexon-pVIn reconstituted from purified hexon and synthetic pVIn. It counts as binding, human adenovirus (Ad5 hexon).
Experiment [2] concerns hexon trimer. Briefly: Native MS of endogenous hexon-pVIn complexes from heat-disrupted virions. Type of experiment: binding, human adenovirus (Ad5F35).
The test system of experiment [3] is hexon trimers. Conditions: in vitro; ref [15]; cited from earlier work.
Setting [4] is: 1:2 hexon:pVIn, pH range 4–9, native MS, triplicate.
Setting [5] is: 150 mM ammonium acetate pH 5, released fraction.

Turning to “MEDINFASLAPRHGSRPFMGNWQDIGTSNMSGG [pVIn]”, in experiment [1] (setting [4]), the “strength of hexon-pVIn interaction at cytosolic pH” value is “relatively weak” and the “strength of hexon-pVIn interaction at endosomal pH” value is “strongest”. For the same substance, the “dissociation of hexon-pVIn towards pH 8” value in experiment [1] (1:2 hexon:pVIn, pVIn 1 µM, hexon trimer 0.5 µM, native MS, 150 mM ammonium acetate, triplicate) is listed as “near-complete dissociation”. For the same substance, in experiment [1] (hexons isolated from virus-infected cells, no synthetic pVIn added, native MS), the “residual endogenous pVIn bound to purified hexons” value is reported as “approximately 3 % of maximum occupancy”. Also, in experiment [2] (setting [5]), the “binding of pVIn to hexon trimer at pH 5” value is reported as “nearly complete binding; also recorded: fully retained on hexon trimers” and the “pVIn molecules/hexon trimer at pH 5” value is on record as 3 pVIn molecules/hexon trimer. In experiment [2] (150 mM ammonium acetate pH 9, released fraction), the “binding of pVIn to hexon trimer at pH 9” value is “only free hexon trimers were recovered and detected”.

As to “pVI: 250 aa precursor of human adenovirus minor capsid protein VI”, the “affinity for hexon trimers” value in experiment [3] was “high affinity; also recorded: nanomolar affinity”.
